Measured values taken from patent US9592221B2, “Antibacterial agents: aryl myxopyronin derivatives” (priority 2012, dated 2017).
In brackets after ≈: the same amount, converted by molar mass.

How the values were obtained:
[1] = target: E. coli RNA polymerase σ^70 holoenzyme (Escherichia coli, UniProt P0A8T7+P0A8V2); test: Fluorescence-detected RNA polymerase assay, E. coli RNA polymerase; format: biochemical; details: read-out: IC50 E. coli RNAP
[2] = tested on: Staphylococcus aureus ATCC 12600; test: MIC, spiral gradient endpoint assay, S. aureus ATCC 12600; format: cell-based; details: ATCC12600; Staphylococcus aureus ATCC 12600
[3] = tested on: Acinetobacter baumannii ATCC 19606; test: MIC, spiral gradient endpoint assay, A. baumannii; format: cell-based; details: ATCC19606; Acinetobacter baumannii ATCC 19606
[4] = tested on: Escherichia coli D21f2tolC; test: MIC, spiral gradient endpoint assay, E. coli D21f2tolC; format: cell-based; details: Escherichia coli, D21F2TOLC, read-out: MIC E. coli D21f2toIC
[5] = tested on: Mycobacterium tuberculosis H37Rv; test: MIC, microplate Alamar Blue assay, M. tuberculosis; format: cell-based
[6] = tested on: Bacillus anthracis Vollum 1b; test: microbe, parasite or virus in culture; format: cell-based; details: Bacillus anthracis, VOLLUM1B, read-out: MIC B. anthracis Vollum-1b
[7] = tested on: Francisella tularensis SCHU4; test: microbe, parasite or virus in culture; format: cell-based; details: Francisella tularensis, SCHU4, read-out: MIC F. tularensis SCHU4
Burkholderia mallei CHN7 = test: microbe, parasite or virus in culture; format: cell-based; details: Burkholderia mallei, CHN7, read-out: MIC B. mallei CHN7
[8] = tested on: Burkholderia pseudomallei Human/Blood/OH/US/1994; test: microbe, parasite or virus in culture; format: cell-based; details: Burkholderia pseudomallei, read-out: MIC B. pseudomallei Human/Blood/OH
Brucella melitensis 16M = test: microbe, parasite or virus in culture; format: cell-based; details: Brucella melitensis, 16M, read-out: MIC B. melitensis 16M

E. coli RNA polymerase σ^70 holoenzyme, sequence (P0A8T7 whole entry): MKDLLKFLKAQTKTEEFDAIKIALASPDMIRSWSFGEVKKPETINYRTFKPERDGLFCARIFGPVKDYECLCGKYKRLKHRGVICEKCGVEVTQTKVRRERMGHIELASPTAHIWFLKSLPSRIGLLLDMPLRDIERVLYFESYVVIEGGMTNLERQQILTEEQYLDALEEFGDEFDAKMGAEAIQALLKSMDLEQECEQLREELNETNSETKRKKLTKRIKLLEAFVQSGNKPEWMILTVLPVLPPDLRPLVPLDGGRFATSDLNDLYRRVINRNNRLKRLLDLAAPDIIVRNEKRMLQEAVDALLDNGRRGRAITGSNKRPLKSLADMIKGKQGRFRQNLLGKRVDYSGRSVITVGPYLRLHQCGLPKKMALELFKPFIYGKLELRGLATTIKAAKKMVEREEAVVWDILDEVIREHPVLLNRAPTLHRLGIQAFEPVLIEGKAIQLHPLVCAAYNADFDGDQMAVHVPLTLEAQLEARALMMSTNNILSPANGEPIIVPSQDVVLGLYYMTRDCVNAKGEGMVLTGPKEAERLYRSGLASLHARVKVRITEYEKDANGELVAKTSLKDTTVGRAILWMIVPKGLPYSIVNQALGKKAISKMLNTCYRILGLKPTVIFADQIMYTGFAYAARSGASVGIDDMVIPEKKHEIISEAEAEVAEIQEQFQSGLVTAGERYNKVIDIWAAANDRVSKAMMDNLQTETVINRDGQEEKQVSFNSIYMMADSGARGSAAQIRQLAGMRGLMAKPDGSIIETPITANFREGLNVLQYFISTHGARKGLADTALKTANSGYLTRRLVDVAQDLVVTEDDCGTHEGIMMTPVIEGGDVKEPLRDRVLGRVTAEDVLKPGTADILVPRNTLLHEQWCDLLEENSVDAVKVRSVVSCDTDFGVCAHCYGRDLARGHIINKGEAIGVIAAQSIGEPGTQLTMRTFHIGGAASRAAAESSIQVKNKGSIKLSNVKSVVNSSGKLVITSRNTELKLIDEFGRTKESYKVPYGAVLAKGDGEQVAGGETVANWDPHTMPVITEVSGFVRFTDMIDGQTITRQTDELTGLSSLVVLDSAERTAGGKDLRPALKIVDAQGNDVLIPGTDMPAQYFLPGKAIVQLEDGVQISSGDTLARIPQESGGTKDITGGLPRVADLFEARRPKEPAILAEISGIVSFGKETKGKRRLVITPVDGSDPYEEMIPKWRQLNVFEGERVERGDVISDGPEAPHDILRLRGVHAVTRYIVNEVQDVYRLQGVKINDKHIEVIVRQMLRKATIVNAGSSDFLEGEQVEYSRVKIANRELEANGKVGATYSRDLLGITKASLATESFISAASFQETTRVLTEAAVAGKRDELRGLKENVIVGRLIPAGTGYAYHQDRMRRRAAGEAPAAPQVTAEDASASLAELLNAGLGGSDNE
E. coli RNA polymerase σ^70 holoenzyme, sequence (P0A800 whole entry, further chain): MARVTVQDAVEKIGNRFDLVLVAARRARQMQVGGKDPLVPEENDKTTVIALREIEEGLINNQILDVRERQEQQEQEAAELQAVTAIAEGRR
E. coli RNA polymerase σ^70 holoenzyme, sequence (P0A8V2 whole entry): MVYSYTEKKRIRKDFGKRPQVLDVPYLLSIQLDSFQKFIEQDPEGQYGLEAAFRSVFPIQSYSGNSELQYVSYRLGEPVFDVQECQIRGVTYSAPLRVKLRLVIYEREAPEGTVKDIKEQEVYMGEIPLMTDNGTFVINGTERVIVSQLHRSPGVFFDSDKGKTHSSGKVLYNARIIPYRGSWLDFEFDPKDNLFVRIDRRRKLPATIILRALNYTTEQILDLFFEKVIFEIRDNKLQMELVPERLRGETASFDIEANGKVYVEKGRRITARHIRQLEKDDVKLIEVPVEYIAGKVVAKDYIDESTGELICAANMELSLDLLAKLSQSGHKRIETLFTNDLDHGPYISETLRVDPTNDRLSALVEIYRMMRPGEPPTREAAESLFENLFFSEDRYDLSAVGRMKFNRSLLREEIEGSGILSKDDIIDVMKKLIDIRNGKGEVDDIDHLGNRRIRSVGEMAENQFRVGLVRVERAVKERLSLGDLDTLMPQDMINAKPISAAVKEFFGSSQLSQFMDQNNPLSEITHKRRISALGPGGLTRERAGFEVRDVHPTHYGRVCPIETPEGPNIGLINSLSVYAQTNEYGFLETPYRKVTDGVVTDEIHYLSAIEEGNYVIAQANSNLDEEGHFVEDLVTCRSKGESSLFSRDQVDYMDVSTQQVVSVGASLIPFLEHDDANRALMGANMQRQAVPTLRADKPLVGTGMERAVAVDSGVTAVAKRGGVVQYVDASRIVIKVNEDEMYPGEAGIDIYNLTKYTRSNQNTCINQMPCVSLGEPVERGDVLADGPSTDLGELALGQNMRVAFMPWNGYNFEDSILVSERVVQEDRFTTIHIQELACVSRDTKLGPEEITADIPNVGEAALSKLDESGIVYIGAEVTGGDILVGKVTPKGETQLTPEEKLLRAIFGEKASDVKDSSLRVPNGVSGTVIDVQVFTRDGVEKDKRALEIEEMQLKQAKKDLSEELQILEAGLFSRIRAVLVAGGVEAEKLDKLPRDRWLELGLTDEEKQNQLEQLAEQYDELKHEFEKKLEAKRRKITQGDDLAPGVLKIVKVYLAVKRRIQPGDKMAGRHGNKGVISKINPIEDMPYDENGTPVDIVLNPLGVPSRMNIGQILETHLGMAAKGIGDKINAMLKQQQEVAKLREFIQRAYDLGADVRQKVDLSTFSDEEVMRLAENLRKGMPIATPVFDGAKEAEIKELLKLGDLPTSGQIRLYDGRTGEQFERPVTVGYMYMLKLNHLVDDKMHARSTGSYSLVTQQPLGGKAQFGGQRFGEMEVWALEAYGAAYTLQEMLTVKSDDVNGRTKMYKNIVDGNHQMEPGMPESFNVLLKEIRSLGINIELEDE
E. coli RNA polymerase σ^70 holoenzyme, sequence (P00579 whole entry, further chain): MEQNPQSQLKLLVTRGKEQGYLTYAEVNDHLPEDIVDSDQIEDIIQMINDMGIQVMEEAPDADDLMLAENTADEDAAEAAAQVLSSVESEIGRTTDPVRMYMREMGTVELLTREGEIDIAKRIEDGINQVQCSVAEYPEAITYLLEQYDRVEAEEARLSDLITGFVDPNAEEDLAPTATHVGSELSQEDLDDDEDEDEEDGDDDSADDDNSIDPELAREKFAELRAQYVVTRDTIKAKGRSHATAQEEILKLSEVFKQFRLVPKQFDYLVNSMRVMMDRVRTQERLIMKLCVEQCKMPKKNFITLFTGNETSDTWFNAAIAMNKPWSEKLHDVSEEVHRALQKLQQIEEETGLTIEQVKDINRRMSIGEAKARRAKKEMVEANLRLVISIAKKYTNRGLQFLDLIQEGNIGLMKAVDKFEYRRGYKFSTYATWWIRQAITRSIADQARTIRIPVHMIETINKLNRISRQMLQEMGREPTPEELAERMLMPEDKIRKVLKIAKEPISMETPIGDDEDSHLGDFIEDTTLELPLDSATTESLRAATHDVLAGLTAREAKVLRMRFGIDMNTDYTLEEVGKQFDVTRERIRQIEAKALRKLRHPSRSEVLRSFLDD
E. coli RNA polymerase σ^70 holoenzyme, sequence (P0A7Z4 whole entry, further chain): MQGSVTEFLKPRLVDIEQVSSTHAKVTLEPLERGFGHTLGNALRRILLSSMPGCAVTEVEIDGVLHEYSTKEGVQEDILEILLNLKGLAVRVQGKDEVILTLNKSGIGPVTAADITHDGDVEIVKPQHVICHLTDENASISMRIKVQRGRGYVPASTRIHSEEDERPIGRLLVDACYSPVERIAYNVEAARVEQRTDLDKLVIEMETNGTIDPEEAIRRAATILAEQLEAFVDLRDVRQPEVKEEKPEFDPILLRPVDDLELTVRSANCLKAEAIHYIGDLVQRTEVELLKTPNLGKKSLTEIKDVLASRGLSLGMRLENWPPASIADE

In the case of `CCCCCc1ccc(C=C(C)C(=O)c2c(O)cc(C(C)CC/C=C/NC(=O)OC)oc2=O)s1` (mixture of isomers) [APY59, methyl (E)-5-(4-hydroxy-5-((E/Z)-2-methyl-3-(5-pentylthiophen-2-yl)acryloyl)-6-oxo-6H-pyran-2-yl)hex-1-enylcarbamate], the IC50 [1] is reported as 10 nM, the MIC [2] is reported as 0.3 µg/mL and the MIC [3] is reported as 7 µg/mL. The MIC [4] was 0.2 µg/mL, the MIC [5] was 30 µg/mL and the MIC [6] was 2 µg/mL. It also gave an MIC [7] of 10 µg/mL, an MIC (Burkholderia mallei CHN7) of 6 µg/mL and an MIC [8] of 10 µg/mL. For the same compound, the MIC (Brucella melitensis 16M) was 6 µg/mL.
Work on `COC(=O)N/C=C/CCC(C)c1cc(O)c(C(=O)C(C)=Cc2ccc(C)cc2)c(=O)o1` (mixture of isomers) [APY57, methyl (E)-5-(4-hydroxy-5-((E/Z)-2-methyl-3-p-tolylacryloyl)-6-oxo-6H-pyran-2-yl)hex-1-enylcarbamate] yielded an IC50 [1] greater than 6000 nM, an MIC [2] greater than 40 µg/mL and an MIC [3] greater than 40 µg/mL. For the same compound, the MIC [4] was 1 µg/mL.
For `CCCCc1ccc(C=C(C)C(=O)c2c(O)cc(C(C)CCCCNC(=O)OC)oc2=O)s1` (mixture of isomers) [APY67, methyl 5-(5-((E/Z)-3-(5-butylthiophen-2-yl)-2-methylacryloyl)-4-hydroxy-6-oxo-6H-pyran-2-yl)hexylcarbamate], the IC50 [1] was 1000 nM, the MIC [2] was 5 µg/mL and the MIC [3] was greater than 40 µg/mL. For the same compound, the MIC [4] was 0.5 µg/mL, the MIC [5] was 50 µg/mL and the MIC [6] was 30 µg/mL. For the same compound, the MIC [7] was 50 µg/mL, the MIC (Burkholderia mallei CHN7) was greater than 50 µg/mL and the MIC [8] was greater than 50 µg/mL. The MIC (Brucella melitensis 16M) was 10 µg/mL.
Compound `COC(=O)N/C=C/CCC(C)c1cc(O)c(C(=O)C(C)=Cc2cnc(N3CCCCC3)s2)c(=O)o1` (stereo not shown) [APY142] has an IC50 [1] of 600 nM, an MIC [2] of 20 µg/mL (≈ 39.9 µM) and an MIC [3] greater than 40 µg/mL. It also gave an MIC [4] of 1 µg/mL (≈ 1.99 µM).
For `CCCCCc1ccc(C=C(C)C(=O)c2c(O)cc(C(C)CC/C=C/NC(=O)OC)oc2=O)cc1` (mixture of isomers) [APY72, methyl (E)-5-(4-hydroxy-5-((E/Z)-2-methyl-3-(4-pentylphenyl)acryloyl)-6-oxo-6H-pyran-2-yl)hex-1-enylcarbamate], the IC50 [1] was 200 nM, the MIC [2] was 2 µg/mL and the MIC [3] was greater than 40 µg/mL. It also gave an MIC [4] of 0.2 µg/mL, an MIC [6] of 3 µg/mL and an MIC [7] of 10 µg/mL. The MIC (Burkholderia mallei CHN7) was 10 µg/mL, the MIC [8] was 50 µg/mL and the MIC (Brucella melitensis 16M) was 2 µg/mL.
`COC(=O)N/C=C/CCC(C)c1cc(O)c(C(=O)C(C)=Cc2ccc(CCCCCC(F)(F)F)s2)c(=O)o1` (mixture of isomers) [APY82, methyl ((1E)-5-(4-hydroxy-3-(2-methyl-3-(5-(6,6,6-trifluorohexyl)thiophen-2-yl)acryloyl)-2-oxo-2H-pyran-6-yl)hex-1-en-1-yl)carbamate] gave an IC50 [1] of 5 nM, an MIC [2] of 10 µg/mL and an MIC [3] of 20 µg/mL. For the same compound, the MIC [4] was 0.07 µg/mL, the MIC [5] was greater than 50 µg/mL and the MIC [6] was 3 µg/mL. It also gave an MIC [7] of 10 µg/mL, an MIC (Burkholderia mallei CHN7) of 6 µg/mL and an MIC [8] of 6 µg/mL. It also gave an MIC (Brucella melitensis 16M) of 2 µg/mL.
With `CCc1ccc(C=C(C)C(=O)c2c(O)cc(C(C)CC/C=C/NC(=O)OC)oc2=O)cc1` (mixture of isomers) [APY70, methyl (E)-5-(5-((E/Z)-3-(4-ethylphenyl)-2-methylacryloyl)-4-hydroxy-6-oxo-6H-pyran-2-yl)hex-1-enylcarbamate] the IC50 [1] was greater than 6000 nM, the MIC [2] was 20 µg/mL and the MIC [3] was greater than 40 µg/mL. The MIC [4] was 1 µg/mL, the MIC [5] was 30 µg/mL and the MIC [6] was 50 µg/mL. The MIC [7] was greater than 50 µg/mL, the MIC (Burkholderia mallei CHN7) was greater than 50 µg/mL and the MIC [8] was greater than 50 µg/mL. The MIC (Brucella melitensis 16M) was 30 µg/mL.
`COC(=O)N/C=C/CCC(C)c1cc(O)c(C(=O)C(C)=Cc2ccc(OCC(C)C)cc2)c(=O)o1` (mixture of isomers) [APY53, methyl (E)-5-(4-hydroxy-3-((E/Z)-3-(4-isobutoxyphenyl)-2-methacryloyl)-4-hydroxy-2-oxo-2H-pyran-6-yl)hex-1-enylcarbamate] was tested, and the IC50 [1] was 2000 nM, the MIC [2] was 2 µg/mL and the MIC [3] was greater than 40 µg/mL. The MIC [4] was 0.4 µg/mL, the MIC [5] was 6 µg/mL and the MIC [6] was 3 µg/mL. The MIC [7] was 50 µg/mL, the MIC (Burkholderia mallei CHN7) was greater than 50 µg/mL and the MIC [8] was greater than 50 µg/mL. The MIC (Brucella melitensis 16M) was 10 µg/mL.
For `COC(=O)N/C=C/CCC(C)c1cc(O)c(C(=O)C(C)=Cc2ccc(CCC3CCCCC3)s2)c(=O)o1` (mixture of isomers) [APY62, methyl (E)-5-(5-((E/Z)-3-(5-(2-cyclohexylethyl)thiophen-2-yl)-2-methylacryloyl)-4-hydroxy-6-oxo-6H-pyran-2-yl)hex-1-enylcarbamate], the IC50 [1] was 10 nM, the MIC [2] was 2 µg/mL and the MIC [3] was greater than 40 µg/mL. It also gave an MIC [4] of 10 µg/mL.
`CCCc1ccc(C=C(C)C(=O)c2c(O)cc(C(C)CC/C=C/NC(=O)OC)oc2=O)cc1` (mixture of isomers) [APY71, methyl (E)-5-(4-hydroxy-5-((E/Z)-2-methyl-3-(4-propylphenyl)acryloyl)-6-oxo-6H-pyran-2-yl)hex-1-enylcarbamate] was tested, and the IC50 [1] was 400 nM, the MIC [2] was 4 µg/mL and the MIC [3] was greater than 40 µg/mL. The MIC [4] was 0.5 µg/mL, the MIC [6] was 30 µg/mL and the MIC [7] was greater than 50 µg/mL. The MIC (Burkholderia mallei CHN7) was greater than 50 µg/mL, the MIC [8] was greater than 50 µg/mL and the MIC (Brucella melitensis 16M) was 10 µg/mL.
`COC(=O)N/C=C/CCC(C)c1cc(O)c(C(=O)C(C)=Cc2ccc(OCC3CCCO3)cc2)c(=O)o1` (mixture of isomers) [APY54, methyl (E)-5-(4-hydroxy-3-((E/Z)-2-methyl-3-(4-((tetrahydrofuran-2-yl)methoxy)phenyl)acryloyl)-2-oxo-2H-pyran-6-y)hex-1-enylcarbamate] was tested, and the IC50 [1] was greater than 6000 nM, the MIC [2] was greater than 40 µg/mL and the MIC [3] was greater than 40 µg/mL. For the same compound, the MIC [4] was 7 µg/mL.
In the case of `COC(=O)N/C=C/CCC(C)c1cc(O)c(C(=O)C(C)=Cc2ccc(C)s2)c(=O)o1` (mixture of isomers) [APY69, methyl (E)-5-(4-hydroxy-5-((E/Z)-2-methyl-3-(5-methylthiophen-2-yl)acryloyl)-6-oxo-6H-pyran-2-yl)hex-1-enylcarbamate], the IC50 [1] is reported as 1000 nM, the MIC [2] is reported as greater than 40 µg/mL and the MIC [3] is reported as greater than 40 µg/mL. It also gave an MIC [4] of 7 µg/mL.
Compound `CCc1ccc2cc(C=C(C)C(=O)c3c(O)cc(C(C)CC/C=C/NC(=O)OC)oc3=O)oc2c1` (mixture of isomers) [APY110, methyl ((1E)-5-(3-(3-(6-ethylbenzofuran-2-yl)-2-methylacryloyl)-4-hydroxy-2-oxo-2H-pyran-6-yl)hex-1-en-1-yl)carbamate] has an IC50 [1] of 200 nM, an MIC [2] of 8 µg/mL and an MIC [3] greater than 40 µg/mL. For the same compound, the MIC [4] was 0.3 µg/mL and the MIC [5] was 30 µg/mL.
`CCCc1cn(C)c(C=C(C)C(=O)c2c(O)cc(C(C)CC/C=C/NC(=O)OC)oc2=O)n1` (mixture of isomers) [APY143, methyl ((1E)-5-(4-hydroxy-3-(2-methyl-3-(1-methyl-4-propyl-1H-imidazol-2-yl)acryloyl)-2-oxo-2H-pyran-6-yl)hex-1-en-1-yl)carbamate] was tested, and the IC50 [1] was 1000 nM, the MIC [2] was greater than 40 µg/mL and the MIC [3] was greater than 40 µg/mL. The MIC [4] was 10 µg/mL.
With `COC(=O)N/C=C/CCC(C)c1cc(O)c(C(=O)C(C)=Cc2cc3ccc(CCC(F)(F)F)cc3s2)c(=O)o1` (mixture of isomers) [APY114, methyl ((1E)-5-(4-hydroxy-3-(2-methyl-3-(6-(3,3,3-trifluoropropyl)benzo[b]thiophen-2-yl)acryloyl)-2-oxo-2H-pyran-6-yl)hex-1-en-1-yl)carbamate] the IC50 [1] was 300 nM, the MIC [2] was greater than 40 µg/mL and the MIC [3] was greater than 40 µg/mL. The MIC [4] was 0.2 µg/mL.
Compound `COC(=O)N/C=C/CCC(C)c1cc(O)c(C(=O)C(C)=Cc2cc3ccc(CCC(F)(F)F)cc3o2)c(=O)o1` (mixture of isomers) [APY112, methyl ((1E)-5-(4-hydroxy-3-(2-methyl-3-(6-(3,3,3-trifluoropropyl)benzofuran-2-yl)acryloyl)-2-oxo-2H-pyran-6-yl)hex-1-en-1-yl)carbamate] has an IC50 [1] of 300 nM, an MIC [2] greater than 40 µg/mL and an MIC [3] greater than 40 µg/mL. The MIC [4] was 0.2 µg/mL.
Work on `COC(=O)N/C=C/CCC(C)c1cc(O)c(C(=O)C(C)=Cc2cccc(OCCC(C)C)c2)c(=O)o1` (mixture of isomers) [APY51, methyl (E)-5-(4-hydroxy-3-((E/Z)-3-(3-isopentyloxy)phenyl)-2-methacryloyl-2-oxo-2H-pyran-6-yl)hex-1-enylcarbamate] yielded an IC50 [1] of 1000 nM, an MIC [2] greater than 40 µg/mL and an MIC [3] greater than 40 µg/mL. For the same compound, the MIC [4] was 0.5 µg/mL.
Compound `COC(=O)N/C=C/CCC(C)c1cc(O)c(C(=O)C(C)=Cc2cc3ccc(CCC(C)C)cc3o2)c(=O)o1` (mixture of isomers) [APY111, methyl ((1E)-5-(4-hydroxy-3-(3-(6-isopentylbenzofuran-2-yl)-2-methylacryloyl)-2-oxo-2H-pyran-6-yl)hex-1-en-1-yl)carbamate] has an IC50 [1] of 50 nM, an MIC [2] greater than 40 µg/mL and an MIC [3] greater than 40 µg/mL. The MIC [4] was 0.3 µg/mL.
`COC(=O)N/C=C/CCC(C)c1cc(O)c(C(=O)C(C)=Cc2cc(CCC(F)(F)F)cn2C)c(=O)o1` (mixture of isomers) [APY135, methyl ((1E)-5-(4-hydroxy-3-(2-methyl-3-(1-methyl-4-(3,3,3-trifluoropropyl)-1H-pyrrol-2-yl)acryloyl)-2-oxo-2H-pyran-6-yl)hex-1-en-1-yl)carbamate] gave an IC50 [1] of 100 nM, an MIC [2] of 10 µg/mL and an MIC [3] greater than 40 µg/mL. The MIC [4] was 2 µg/mL.
`COC(=O)N/C=C/CCC(C)c1cc(O)c(C(=O)C(C)=Cc2ccc(OCCC(C)C)cc2)c(=O)o1` (mixture of isomers) [APY50, methyl (E)-5-(4-hydroxy-3-((E/Z)-3-(4-isopentyloxy)phenyl)-2-methacryloyl-2-oxo-2H-pyran-6-yl)hex-1-enylcarbamate] was tested, and the IC50 [1] was greater than 6000 nM, the MIC [2] was greater than 40 µg/mL and the MIC [3] was greater than 40 µg/mL. The MIC [4] was 2 µg/mL.
